The values that follow come from patent publication US20230310428A1, “EGFR INHIBITOR AND PREPARATION METHOD AND USE THEREOF” (HONGYUN BIOTECH CO., LTD., priority 2020, published 2023).

Holding throughout (test): Growth inhibitory activity of compounds on BaF3 cell lines stably transfected with kinase (MTS, 48 h)
Common to all, as to assay type: cell-based

Assay [1] has as its target T1, various mutants of kinase EGFR (BaF3 cell lines stably transfected with kinase) (Homo sapiens, UniProt P00533).
T1 construct: other: BaF3 cells stably transfected with EGFR Δ19Del; MTS, 48 h; other: BaF3 cell line stably transfected with EGFR Δ19Del
Conditions: BaF3 cells stably transfected with EGFR Δ19Del, read-out: IC50, growth inhibition, Δ19Del. In a few lines:
(§1)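 Cells in DMEM or RPMI 1640 with 10% FBS were exposed to compound at 8 concentrations (top 10 µM, 1/3 steps, 0.1% DMSO) for 48 h at 37 °C, 5% CO2. MTS/PES was then added for 1-4 h and OD490 read; IC50 was fitted from growth inhibition versus 0.1% DMSO control.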

The target of assay [2] is T2, various mutants of kinase EGFR (BaF3 cell lines stably transfected with kinase) (Homo sapiens, UniProt P00533, C797S/L858R/T790M).
T2 construct: expressed in transfected cells; host or cells: BaF3
To be noted: BaF3 cells stably transfected with EGFR L858R/T790M/C797S, read-out: IC50, growth inhibition, L858R/T790M/C797S. The method, boiled down:
as §1

Assay [3] addresses T3, various mutants of kinase EGFR (BaF3 cell lines stably transfected with kinase) (Homo sapiens, UniProt P00533, L858R).
T3 construct: expressed in transfected cells; host or cells: BaF3
To be noted: BaF3 cells stably transfected with EGFR L858R, read-out: IC50, growth inhibition, L858R. The method, boiled down:
as §1

In assay [4] the target is T4, various mutants of kinase EGFR (BaF3 cell lines stably transfected with kinase) (Homo sapiens, UniProt P00533, L858R/T790M).
T4 construct: expressed in transfected cells; host or cells: BaF3
T4 sequence (P00533 25-1210 T790M/L858R): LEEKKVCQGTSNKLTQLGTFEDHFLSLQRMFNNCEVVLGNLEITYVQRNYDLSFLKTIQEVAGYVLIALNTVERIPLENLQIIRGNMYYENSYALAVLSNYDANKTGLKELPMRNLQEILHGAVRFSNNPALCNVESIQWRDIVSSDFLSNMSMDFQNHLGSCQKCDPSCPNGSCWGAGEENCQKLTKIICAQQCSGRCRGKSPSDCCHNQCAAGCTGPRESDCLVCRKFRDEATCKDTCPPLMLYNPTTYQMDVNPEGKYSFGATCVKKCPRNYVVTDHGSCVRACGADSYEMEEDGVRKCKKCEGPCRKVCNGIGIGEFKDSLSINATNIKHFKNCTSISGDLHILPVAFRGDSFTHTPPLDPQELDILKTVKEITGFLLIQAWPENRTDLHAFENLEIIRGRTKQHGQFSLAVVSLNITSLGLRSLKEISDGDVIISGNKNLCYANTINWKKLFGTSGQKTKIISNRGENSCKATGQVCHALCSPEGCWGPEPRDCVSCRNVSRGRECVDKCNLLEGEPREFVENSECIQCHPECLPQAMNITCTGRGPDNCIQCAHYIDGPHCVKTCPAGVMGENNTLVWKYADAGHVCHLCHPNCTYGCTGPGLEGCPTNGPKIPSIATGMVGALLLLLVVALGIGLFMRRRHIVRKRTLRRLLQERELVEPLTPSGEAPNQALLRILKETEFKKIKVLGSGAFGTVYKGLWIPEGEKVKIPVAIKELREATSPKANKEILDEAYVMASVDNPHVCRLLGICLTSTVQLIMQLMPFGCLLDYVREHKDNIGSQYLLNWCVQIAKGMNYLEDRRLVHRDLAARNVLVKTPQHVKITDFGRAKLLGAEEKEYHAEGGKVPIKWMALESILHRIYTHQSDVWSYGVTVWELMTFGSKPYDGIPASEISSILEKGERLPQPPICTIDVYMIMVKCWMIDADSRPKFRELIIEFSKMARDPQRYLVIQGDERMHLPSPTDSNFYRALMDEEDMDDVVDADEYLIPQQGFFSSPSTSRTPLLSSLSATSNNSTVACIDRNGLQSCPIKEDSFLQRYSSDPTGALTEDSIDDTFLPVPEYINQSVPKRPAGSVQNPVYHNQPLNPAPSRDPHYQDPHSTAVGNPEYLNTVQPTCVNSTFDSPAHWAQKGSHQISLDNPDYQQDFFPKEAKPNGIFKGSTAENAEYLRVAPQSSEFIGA
To be noted: BaF3 cells stably transfected with EGFR L858R/T790M, read-out: IC50, growth inhibition, L858R/T790M. In a few lines: as §1

The target of assay [5] is T5, various mutants of kinase EGFR (BaF3 cell lines stably transfected with kinase) (Homo sapiens, UniProt P00533, T790M/C797S, form not given).
T5 construct: other: BaF3 cells stably transfected with EGFR Δ19Del/T790M/C797S; MTS, 48; other: BaF3 cell line stably transfected with EGFR Δ19Del/T790M/C7
T5 sequence (P00533 with tags, fused parts or gaps DEL746-750/T790M/C797S, form open): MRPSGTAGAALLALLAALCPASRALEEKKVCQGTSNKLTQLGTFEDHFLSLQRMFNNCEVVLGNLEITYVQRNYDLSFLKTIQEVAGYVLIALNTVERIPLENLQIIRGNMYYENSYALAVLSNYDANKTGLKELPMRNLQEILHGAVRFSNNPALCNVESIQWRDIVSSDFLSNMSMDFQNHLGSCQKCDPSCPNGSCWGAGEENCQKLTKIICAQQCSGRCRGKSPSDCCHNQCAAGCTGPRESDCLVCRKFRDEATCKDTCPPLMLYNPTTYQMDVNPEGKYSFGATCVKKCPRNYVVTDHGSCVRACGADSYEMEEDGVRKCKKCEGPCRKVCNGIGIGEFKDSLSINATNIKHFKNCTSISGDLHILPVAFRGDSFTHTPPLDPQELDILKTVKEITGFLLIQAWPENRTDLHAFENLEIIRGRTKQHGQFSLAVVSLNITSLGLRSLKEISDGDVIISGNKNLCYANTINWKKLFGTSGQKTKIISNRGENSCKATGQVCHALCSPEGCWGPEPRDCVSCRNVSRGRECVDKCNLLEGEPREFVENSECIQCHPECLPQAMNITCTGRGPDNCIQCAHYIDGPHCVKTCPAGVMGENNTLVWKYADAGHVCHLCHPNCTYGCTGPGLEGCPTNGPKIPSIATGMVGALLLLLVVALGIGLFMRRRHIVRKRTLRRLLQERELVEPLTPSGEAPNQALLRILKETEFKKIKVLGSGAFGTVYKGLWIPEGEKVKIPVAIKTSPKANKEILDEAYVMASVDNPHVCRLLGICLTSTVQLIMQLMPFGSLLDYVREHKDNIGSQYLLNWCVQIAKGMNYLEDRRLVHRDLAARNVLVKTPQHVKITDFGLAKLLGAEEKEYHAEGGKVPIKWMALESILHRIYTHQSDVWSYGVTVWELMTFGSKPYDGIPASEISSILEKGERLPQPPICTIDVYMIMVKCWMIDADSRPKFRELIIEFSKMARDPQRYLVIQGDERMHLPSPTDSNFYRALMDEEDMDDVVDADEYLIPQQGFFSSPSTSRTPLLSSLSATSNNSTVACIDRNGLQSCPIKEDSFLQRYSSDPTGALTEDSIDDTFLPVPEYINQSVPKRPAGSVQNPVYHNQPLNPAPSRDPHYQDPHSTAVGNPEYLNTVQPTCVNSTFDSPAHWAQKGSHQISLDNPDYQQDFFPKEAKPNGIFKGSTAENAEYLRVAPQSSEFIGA
To be noted: BaF3 cells stably transfected with EGFR Δ19Del/T790M/C797S, read-out: IC50, growth inhibition, Δ19Del/T790M/C797S. In a few lines:
as §1

Assay [6] addresses T6, various mutants of kinase EGFR (BaF3 cell lines stably transfected with kinase) (Homo sapiens, UniProt P00533, T790M, form not given).
T6 construct: other: BaF3 cells stably transfected with EGFR Δ19Del/T790M; MTS, 48 h; other: BaF3 cell line stably transfected with EGFR Δ19Del/T790M; MTS, 48
Conditions: BaF3 cells stably transfected with EGFR Δ19Del/T790M, read-out: IC50, growth inhibition, Δ19Del/T790M. The method, boiled down:
as §1

Structures are written as SMILES.

T3 sequence (P00533 25-1210 L858R): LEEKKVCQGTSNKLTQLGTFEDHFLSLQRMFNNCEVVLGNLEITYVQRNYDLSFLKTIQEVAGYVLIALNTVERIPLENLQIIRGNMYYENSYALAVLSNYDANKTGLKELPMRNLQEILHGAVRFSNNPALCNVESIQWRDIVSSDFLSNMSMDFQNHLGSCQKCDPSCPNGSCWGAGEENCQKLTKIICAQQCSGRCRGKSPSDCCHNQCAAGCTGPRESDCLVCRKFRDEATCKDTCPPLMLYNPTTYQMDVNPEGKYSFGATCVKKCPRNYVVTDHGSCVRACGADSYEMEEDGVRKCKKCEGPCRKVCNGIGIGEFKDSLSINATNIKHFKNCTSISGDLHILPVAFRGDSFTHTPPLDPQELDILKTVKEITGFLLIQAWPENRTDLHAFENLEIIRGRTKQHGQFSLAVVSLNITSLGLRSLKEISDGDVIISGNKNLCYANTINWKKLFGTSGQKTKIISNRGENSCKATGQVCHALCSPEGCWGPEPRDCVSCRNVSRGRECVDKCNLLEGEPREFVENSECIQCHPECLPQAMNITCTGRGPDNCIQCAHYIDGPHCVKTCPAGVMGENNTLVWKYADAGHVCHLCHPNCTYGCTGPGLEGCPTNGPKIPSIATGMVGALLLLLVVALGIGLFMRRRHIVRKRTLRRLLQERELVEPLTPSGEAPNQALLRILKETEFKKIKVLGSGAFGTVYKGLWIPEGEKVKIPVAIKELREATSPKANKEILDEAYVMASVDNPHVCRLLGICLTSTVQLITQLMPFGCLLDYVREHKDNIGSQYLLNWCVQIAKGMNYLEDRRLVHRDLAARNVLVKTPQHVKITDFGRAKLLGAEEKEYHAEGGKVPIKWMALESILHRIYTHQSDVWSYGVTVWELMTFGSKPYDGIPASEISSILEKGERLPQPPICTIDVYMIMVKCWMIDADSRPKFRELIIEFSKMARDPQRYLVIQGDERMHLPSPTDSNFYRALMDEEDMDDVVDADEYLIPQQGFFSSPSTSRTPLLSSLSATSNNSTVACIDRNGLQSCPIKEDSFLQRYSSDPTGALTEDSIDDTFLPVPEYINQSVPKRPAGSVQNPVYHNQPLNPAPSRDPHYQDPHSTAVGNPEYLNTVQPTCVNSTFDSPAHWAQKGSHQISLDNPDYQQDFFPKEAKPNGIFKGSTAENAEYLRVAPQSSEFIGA
T1 sequence (P00533 with tags, fused parts or gaps DEL746-750): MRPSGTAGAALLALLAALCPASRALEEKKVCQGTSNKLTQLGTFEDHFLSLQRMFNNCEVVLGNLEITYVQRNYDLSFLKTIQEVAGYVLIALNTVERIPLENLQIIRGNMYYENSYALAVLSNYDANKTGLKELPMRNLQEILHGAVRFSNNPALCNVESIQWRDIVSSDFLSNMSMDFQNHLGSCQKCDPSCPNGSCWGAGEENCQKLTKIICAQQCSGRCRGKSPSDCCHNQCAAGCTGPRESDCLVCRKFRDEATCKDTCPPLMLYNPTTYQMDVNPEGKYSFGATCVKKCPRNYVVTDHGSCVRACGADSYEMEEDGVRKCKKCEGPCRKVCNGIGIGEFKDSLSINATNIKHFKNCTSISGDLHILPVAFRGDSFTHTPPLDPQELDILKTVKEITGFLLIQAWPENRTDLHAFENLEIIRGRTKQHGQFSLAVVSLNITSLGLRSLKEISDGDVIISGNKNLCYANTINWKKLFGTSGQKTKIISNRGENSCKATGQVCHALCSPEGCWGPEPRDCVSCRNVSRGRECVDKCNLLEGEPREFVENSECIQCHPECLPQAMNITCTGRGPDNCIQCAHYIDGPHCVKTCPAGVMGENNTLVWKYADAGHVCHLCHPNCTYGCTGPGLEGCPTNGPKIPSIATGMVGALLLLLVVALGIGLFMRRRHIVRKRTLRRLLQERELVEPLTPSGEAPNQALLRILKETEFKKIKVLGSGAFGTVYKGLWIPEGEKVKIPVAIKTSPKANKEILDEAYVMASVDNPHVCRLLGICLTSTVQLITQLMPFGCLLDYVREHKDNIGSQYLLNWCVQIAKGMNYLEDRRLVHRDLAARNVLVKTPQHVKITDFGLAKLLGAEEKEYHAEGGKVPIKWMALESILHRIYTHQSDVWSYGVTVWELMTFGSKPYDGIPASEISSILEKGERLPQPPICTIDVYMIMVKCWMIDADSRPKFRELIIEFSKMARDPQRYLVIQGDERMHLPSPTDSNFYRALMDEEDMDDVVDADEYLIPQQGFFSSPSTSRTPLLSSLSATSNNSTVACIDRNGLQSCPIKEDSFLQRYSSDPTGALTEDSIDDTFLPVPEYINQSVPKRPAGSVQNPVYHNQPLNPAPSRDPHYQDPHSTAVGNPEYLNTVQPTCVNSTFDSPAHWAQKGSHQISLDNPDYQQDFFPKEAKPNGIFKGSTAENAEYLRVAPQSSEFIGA

Take `CCc1cc(Nc2ncc(F)c(Nc3ccc4nccnc4c3N(C)S(C)(=O)=O)n2)c(OC(F)(F)F)cc1N1CCC(N2CCN(C)CC2)CC1` [Compound I-179]: the IC50 in assay [1] is 0.05 to 0.5 µM; in assay [2], 0.05 to 0.5 µM; in assay [3], 0.05 to 0.5 µM; in assay [4], 0.05 to 0.5 µM; in assay [5], at most 0.05 µM; in assay [6] it was 0.05 to 0.5 µM.
On to `C=Cc1cc(Nc2ncc(F)c(Nc3ccc4nccnc4c3N(C)S(C)(=O)=O)n2)c(OC(F)(F)F)cc1N1CCC(N2CCN(C)CC2)CC1` [Compound I-180], for which the IC50 is at most 0.05 µM in assay [1]; 0.05 to 0.5 µM in assay [2]; at most 0.05 µM in assay [3]; at most 0.05 µM in assay [4]; at most 0.05 µM in assay [5]; 0.05 to 0.5 µM in assay [6].
Take `COc1cc(N2CCC(N3CCN(C)CC3)CC2)c(CC2CC2)cc1Nc1ncc(F)c(Nc2ccc3nccnc3c2N(C)S(C)(=O)=O)n1` [Compound I-181]: the IC50 was at most 0.05 µM in assay [1]; 0.05 to 0.5 µM in assay [2]; at most 0.05 µM in assay [3]; at most 0.05 µM in assay [4]; at most 0.05 µM in assay [5]; 0.05 to 0.5 µM in assay [6].
As to `COc1cc(N2CCC(N3CCN(C)CC3)CC2)c(Cc2ccccc2)cc1Nc1ncc(F)c(Nc2ccc3nccnc3c2N(C)S(C)(=O)=O)n1` [Compound I-182], the IC50 in assay [1], in assay [2], in assay [3], in assay [4], in assay [5] and in assay [6] was 0.5 to 2.5 µM throughout.
As for `COc1cc(N2CCC(N(C)C)CC2)c(C)cc1Nc1ncc(F)c(Nc2ccc3nccnc3c2N(C)S(C)(=O)=O)n1` [Compound I-183], the IC50 in assay [1] is at most 0.05 µM; in assay [2] it was at most 0.05 µM; in assay [3], at most 0.05 µM; in assay [4] it was at most 0.05 µM; in assay [5] it was at most 0.05 µM; in assay [6], 0.05 to 0.5 µM.
Regarding `CCc1cc(Nc2ncc(F)c(Nc3ccc4nccnc4c3N(C)S(C)(=O)=O)n2)c(OC)cc1N1CCC(N(C)C)CC1` [Compound I-184], the IC50 was at most 0.05 µM in assay [1]; at most 0.05 µM in assay [2]; at most 0.05 µM in assay [3]; at most 0.05 µM in assay [4]; at most 0.05 µM in assay [5]; 0.05 to 0.5 µM in assay [6].
As for `COc1cc(N2CCN(C)CC2)c(C)cc1Nc1ncc(F)c(Nc2ccc3nccnc3c2N(C)S(C)(=O)=O)n1` [Compound I-185], the IC50 in assay [1] was 0.05 to 0.5 µM; in assay [2], 0.05 to 0.5 µM; in assay [3], at most 0.05 µM; in assay [4] it was 0.05 to 0.5 µM; in assay [5] it was at most 0.05 µM; in assay [6], 0.05 to 0.5 µM.
Consider `CCc1cc(Nc2ncc(F)c(Nc3ccc4nccnc4c3N(C)S(C)(=O)=O)n2)c(OC)cc1N1CCN(C)CC1` [Compound I-186], for which the IC50 in assay [1] is 0.05 to 0.5 µM; in assay [2], at most 0.05 µM; in assay [3] it was at most 0.05 µM; in assay [4], 0.05 to 0.5 µM; in assay [5], at most 0.05 µM; in assay [6] it was 0.05 to 0.5 µM.
Turning to `COc1cc(N2CCC(N(C)C)C2)c(C)cc1Nc1ncc(F)c(Nc2ccc3nccnc3c2N(C)S(C)(=O)=O)n1` (stereo not drawn) [Compound I-187], the IC50 in assay [1] is at most 0.05 µM; in assay [2], 0.05 to 0.5 µM; in assay [3] it was 0.05 to 0.5 µM; in assay [4] it was 0.05 to 0.5 µM; in assay [5], 0.05 to 0.5 µM; in assay [6] it was 0.05 to 0.5 µM.
For the compound `CCc1cc(Nc2ncc(F)c(Nc3ccc4nccnc4c3N(C)S(C)(=O)=O)n2)c(OC)cc1N1CCC(N(C)C)C1` (stereo not drawn) [Compound I-188], the IC50 in assay [1] was 0.05 to 0.5 µM; in assay [2], 0.05 to 0.5 µM; in assay [3], at most 0.05 µM; in assay [4] it was 0.05 to 0.5 µM; in assay [5] it was at most 0.05 µM; in assay [6] it was at most 0.05 µM.
`CCc1cc(Nc2ncc([N+](=O)[O-])c(Nc3ccc4nccnc4c3N(C)S(C)(=O)=O)n2)c(OC)nc1N1CCC(N2CCN(C)CC2)CC1` [Compound I-190]: the IC50 in assay [1] is 0.05 to 0.5 µM; in assay [2], 0.05 to 0.5 µM; in assay [3] it was 0.05 to 0.5 µM; in assay [4], at most 0.05 µM; in assay [5], at most 0.05 µM; in assay [6], at most 0.05 µM.
For the compound `COc1cc(N2CCC(N3CCN(C)CC3)CC2)c(CC2CC2)cc1Nc1ncc([N+](=O)[O-])c(Nc2ccc3nccnc3c2N(C)S(C)(=O)=O)n1` [Compound I-191], the IC50 in assay [1] was 0.05 to 0.5 µM; in assay [2], 0.05 to 0.5 µM; in assay [3] it was 0.05 to 0.5 µM; in assay [4], 0.05 to 0.5 µM; in assay [5], at most 0.05 µM; in assay [6] it was 0.05 to 0.5 µM.
`COc1cc(N2CCC(N(C)C)CC2)c(C)cc1Nc1ncc([N+](=O)[O-])c(Nc2ccc3nccnc3c2N(C)S(C)(=O)=O)n1` [Compound I-192]: the IC50 in assay [1] was at most 0.05 µM; in assay [2], at most 0.05 µM; in assay [3], 0.05 to 0.5 µM; in assay [4] it was at most 0.05 µM; in assay [5], at most 0.05 µM; in assay [6] it was at most 0.05 µM.
For the compound `CCc1cc(Nc2ncc([N+](=O)[O-])c(Nc3ccc4nccnc4c3N(C)S(C)(=O)=O)n2)c(OC)cc1N1CCC(N(C)C)CC1` [Compound I-193], the IC50 in assay [1], in assay [2], in assay [3], in assay [4], in assay [5] and in assay [6] was at most 0.05 µM in each case.
Regarding `COc1cc(N2CCN(C)CC2)c(C)cc1Nc1ncc([N+](=O)[O-])c(Nc2ccc3nccnc3c2N(C)S(C)(=O)=O)n1` [Compound I-194], the IC50 is 0.05 to 0.5 µM in assay [1]; 0.05 to 0.5 µM in assay [2]; 0.05 to 0.5 µM in assay [3]; 0.05 to 0.5 µM in assay [4]; at most 0.05 µM in assay [5]; 0.05 to 0.5 µM in assay [6].
As to `COc1cc(N2CCC(N(C)C)C2)c(C)cc1Nc1ncc([N+](=O)[O-])c(Nc2ccc3nccnc3c2N(C)S(C)(=O)=O)n1` (stereo not drawn) [Compound I-195], the IC50 is 0.05 to 0.5 µM in assay [1]; 0.05 to 0.5 µM in assay [2]; 0.05 to 0.5 µM in assay [3]; 0.05 to 0.5 µM in assay [4]; at most 0.05 µM in assay [5]; 0.05 to 0.5 µM in assay [6].
Regarding `CCc1cc(Nc2ncc([N+](=O)[O-])c(Nc3ccc4nccnc4c3N(C)S(C)(=O)=O)n2)c(OC)cc1N1CCC(N(C)C)C1` (stereo not drawn) [Compound I-196], the IC50 was 0.05 to 0.5 µM in assay [1]; 0.05 to 0.5 µM in assay [2]; 0.05 to 0.5 µM in assay [3]; 0.05 to 0.5 µM in assay [4]; at most 0.05 µM in assay [5]; 0.05 to 0.5 µM in assay [6].
With `COc1nc(N2CCC(N3CCN(C)CC3)CC2)ccc1Nc1ncc(C(F)(F)F)c(Nc2ccc3nccnc3c2N(C)S(C)(=O)=O)n1` [Compound I-197], the IC50 in assay [1] was 0.05 to 0.5 µM; in assay [2], 0.05 to 0.5 µM; in assay [3] it was 0.05 to 0.5 µM; in assay [4] it was 0.05 to 0.5 µM; in assay [5], at most 0.05 µM; in assay [6] it was 0.05 to 0.5 µM.
As to `CCc1cc(Nc2ncc(C(F)(F)F)c(Nc3ccc4nccnc4c3N(C)S(C)(=O)=O)n2)c(OC)nc1N1CCC(N2CCN(C)CC2)CC1` [Compound I-199], the IC50 is 0.05 to 0.5 µM in assay [1]; at most 0.05 µM in assay [2]; at most 0.05 µM in assay [3]; at most 0.05 µM in assay [4]; at most 0.05 µM in assay [5]; at most 0.05 µM in assay [6].
Consider `CN1CCN(C2CCN(c3ccc(Nc4ncc(C(F)(F)F)c(Nc5ccc6nccnc6c5N(C)S(C)(=O)=O)n4)c(OC(F)(F)F)c3)CC2)CC1` [Compound I-200], for which the IC50 in assay [1], in assay [2], in assay [3], in assay [4], in assay [5] and in assay [6] was 0.05 to 0.5 µM each time.
Consider `CCc1cc(Nc2ncc(C(F)(F)F)c(Nc3ccc4nccnc4c3N(C)S(C)(=O)=O)n2)c(OC(F)(F)F)cc1N1CCC(N2CCN(C)CC2)CC1` [Compound I-201], for which the IC50 in assay [1] was 0.05 to 0.5 µM; in assay [2], 0.05 to 0.5 µM; in assay [3], 0.05 to 0.5 µM; in assay [4], 0.05 to 0.5 µM; in assay [5] it was at most 0.05 µM; in assay [6], 0.05 to 0.5 µM.
Consider `C=Cc1cc(Nc2ncc(C(F)(F)F)c(Nc3ccc4nccnc4c3N(C)S(C)(=O)=O)n2)c(OC(F)(F)F)cc1N1CCC(N2CCN(C)CC2)CC1` [Compound I-202], for which the IC50 in assay [1] was 0.05 to 0.5 µM; in assay [2], 0.05 to 0.5 µM; in assay [3] it was 0.05 to 0.5 µM; in assay [4], at most 0.05 µM; in assay [5], at most 0.05 µM; in assay [6], at most 0.05 µM.
